Activity calls are given as the source filed them. The rule behind the calls is not given here.
Molecular target: T1, Dihydrofolate reductase (Escherichia coli) (UniProt P0ABQ4)
T1 sequence (whole entry): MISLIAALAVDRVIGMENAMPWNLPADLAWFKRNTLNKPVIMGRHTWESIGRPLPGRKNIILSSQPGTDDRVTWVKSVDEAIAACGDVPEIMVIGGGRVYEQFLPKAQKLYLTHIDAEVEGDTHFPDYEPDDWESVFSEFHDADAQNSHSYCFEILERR

Row | SMILES | Ki(app)
1 | CN(C)c1ccc(N2C(N)=NC(N)=NC2(C)C)cc1 | inactive
2 | CC1(C)N=C(N)N=C(N)N1c1ccc(CCCCc2ccc(Cl)cc2Cl)cc1 | inactive

From ChEMBL document CHEMBL3632554, “Ligand binding studies, preliminary structure-activity relationship and detailed mechanistic characterization of 1-phenyl-6,6-dimethyl-1,3,5-triazine-2,4-diamine derivatives as inhibitors of Escherichia coli dihydrofolate reductase” (Eur J Med Chem, 2015)
